Literature values, collected in patent publication US6774131B1, “Remedies for endothelin-induced diseases” (Yamanouchi Pharmaceutical Co., Ltd., priority 2000, dated 2004).

Legend:
[1] = 20 mg; 6th International Conference on Endothelin, Abstract No. 219; cited from earlier work
prostate cancer patients = settings: reported, Proceeding of ASCO,19,1314,2000; cited from earlier work

## CCCCN(CCCC)C(=O)CN1C[C@H](c2ccc3c(c2)OCO3)[C@@H](C(=O)O)[C@@H]1c1ccc(OC)cc1 [ABT-627, 1-(N,N-dibutylcarbamoylmethyl)-2(R)-(4-methoxyphenyl)-4(S)-(3,4-methylenedioxyphenyl)pyrrolidine-3(R)-carboxylic acid]
[1]
  AUC: 802 ng·h/mL
  Cmax: 93.5 ng/mL
  T max: 0.6 h
  T ½: 28.4 h
Prostate cancer patients
  minimum effective dose: 10 mg
